In series [1] the test system is Phytophthora infestans. The experiment in a line: whole plant or invertebrate. It is filed as in vivo. As to conditions: in Solanum lycopersicum, 24 h, read-out: PHYTIN percent control rating, tomato plants, one-day protectant test, 200 ppm application rate.
In series [2] the test system is Erysiphe cichoracaerum. The experiment in a line: Cucumber Powdery Mildew greenhouse one-day protectant test. It is filed as in vivo. Particulars: 24 h, read-out: ERYSCI percent control rating.
Series [3] relates to Colletotricum lagenarium. The experiment in a line: Cucumber Anthracnose greenhouse one-day protectant test. It counts as in vivo. Particulars: Cucumis sativus, 24 h, read-out: COLLLA percent control rating.
Series [4] concerns Pyricularia oryzae. The experiment in a line: whole plant or invertebrate. It counts as in vivo. As to conditions: 24 h, read-out: PYRIOR percent control rating.
For series [5], the system named is Leptosphaeria nodorum. Briefly: Glume Blotch of Wheat greenhouse one-day protectant test. It counts as in vivo. Particulars: Parastagonospora nodorum, 24 h, read-out: LEPTNO percent control rating.
The test system of series [6] is Puccinia recondita tritici. Briefly: Leaf Rust of Wheat greenhouse one-day protectant test. It is filed as in vivo. Particulars: 24 h, read-out: PUCCRT percent control rating.
The mark [7] stands for this setting: cucumber plants, one-day protectant test, 200 ppm application rate.
Where [8] appears, read: wheat plants, one-day protectant test, 200 ppm application rate.

The structures appear in SMILES notation. Where two headings read alike, the source gives them in different places.

One may read the melting point as the temperature, or range, at which the solid turns liquid. Take `O=C1C(SC2CCCCC2)NC(c2cccc(I)c2)=NN1CC(F)(F)F` (stereo not shown) [Compound 49, 5-cyclohexylthio-3-(3-iodophenyl)-1-(2,2,2-trifluoroethyl)-4,5-1,2,4-dihydrotriazin-6(1H)-one]: the melting point is 172 to 173 °C. Besides, the pest or weed control at 200 ppm in series [1] lay within 0 to 49%. In series [2] (setting [7]), the pest or weed control at 200 ppm was 0 to 49%. The pest or weed control at 200 ppm in series [3] (setting [7]) lay within 80 to 100%. For the same compound, the pest or weed control at 200 ppm in series [4] was in the range of 80 to 100%. In series [5] (setting [8]), the pest or weed control at 200 ppm lay within 80 to 100%. Moreover, in series [6] (setting [8]), the pest or weed control at 200 ppm lay in the range of 80 to 100%.
The compound `O=C1CNC(c2cc(-c3ccsc3)cc(-c3ccsc3)c2)=NN1CC(F)(F)F` [Compound 61, 3-(3,5-dithien-3-ylphenyl)-1-(2,2,2-trifluoroethyl)-4,5-dihydro-1,2,4-triazin-6(1H)-one] registered a melting point of 180 to 182 °C. In series [1], the pest or weed control at 200 ppm lay within 0 to 49%. In series [2] (setting [7]), the pest or weed control at 200 ppm lay within 0 to 49%. Also, the pest or weed control at 200 ppm in series [3] (setting [7]) is 0 to 49%. Also, in series [4], the pest or weed control at 200 ppm was in the range of 80 to 100%. For the same compound, the pest or weed control at 200 ppm in series [5] (setting [8]) is 0 to 49%. In addition, the pest or weed control at 200 ppm in series [6] (setting [8]) fell in the range of 80 to 100%.
On to `O=C1CNC(c2cc(Br)cc(-c3ccsc3)c2)=NN1CC(F)(F)F` [Compound 67, 3-(3-Bromo-5-thien-3-ylphenyl)-1-(2,2,2-trifluoroethyl)-4,5-dihydro-1,2,4-triazin-6(1H)-one], for which the melting point was in the range of 167 to 169 °C. Besides, the pest or weed control at 200 ppm in series [1] is 0 to 49%. The pest or weed control at 200 ppm in series [2] (setting [7]) lay within 0 to 49%. The pest or weed control at 200 ppm in series [3] (setting [7]) lay in the range of 80 to 100%. Moreover, the pest or weed control at 200 ppm in series [4] was in the range of 80 to 100%. In addition, in series [5] (setting [8]), the pest or weed control at 200 ppm lay in the range of 80 to 100%. Moreover, the pest or weed control at 200 ppm in series [6] (setting [8]) was 80 to 100%.
In the case of `O=C1CNC(c2cccc(Cc3ccccc3)c2)=NN1CC(F)(F)F` [Compound 73, 3-(3-benzylphenyl)-1-(2,2,2-trifluoroethyl)-4,5-dihydro-1,2,4-triazin-6(1H)-one], the melting point is 104 to 106 °C. Besides, the pest or weed control at 200 ppm in series [1] lay within 0 to 49%. For the same compound, the pest or weed control at 200 ppm in series [2] (setting [7]) lay in the range of 0 to 49%. For the same compound, the pest or weed control at 200 ppm in series [3] (setting [7]) was in the range of 0 to 49%. The pest or weed control at 200 ppm in series [4] was in the range of 80 to 100%. For the same compound, the pest or weed control at 200 ppm in series [5] (setting [8]) lay within 80 to 100%. Besides, the pest or weed control at 200 ppm in series [6] (setting [8]) lay in the range of 80 to 100%.
`CON=C(c1ccccc1)c1cccc(C2=NN(CC(F)(F)F)C(=O)CN2)c1` [Compound 75, 3-{3-[(Z)-(Methoxyimino)phenyl)methyl]phenyl}-1-(2,2,2-trifluoroethyl)-4,5-dihydro-1,2,4-triazin-6(1H)-one] gave a melting point of 119 to 123 °C. Further, in series [1], the pest or weed control at 200 ppm lay within 0 to 49%. The pest or weed control at 200 ppm in series [2] (setting [7]) is 0 to 49%. For the same compound, the pest or weed control at 200 ppm in series [3] (setting [7]) lay within 0 to 49%. The pest or weed control at 200 ppm in series [4] fell in the range of 80 to 100%. Also, in series [5] (setting [8]), the pest or weed control at 200 ppm is 80 to 100%. Moreover, the pest or weed control at 200 ppm in series [6] (setting [8]) lay in the range of 80 to 100%.
For `O=c1cnc(-c2cc(-c3ccsc3)cc(-c3ccsc3)c2)nn1CC(F)(F)F` [Compound 80, 3-(3,5-dithien-3-ylphenyl)-1-(2,2,2-trifluoroethyl)-1,2,4-triazin-6(1H)-one], the melting point lay within 189 to 191 °C. Besides, the pest or weed control at 200 ppm in series [1] fell in the range of 0 to 49%. Also, the pest or weed control at 200 ppm in series [2] (setting [7]) was in the range of 0 to 49%. Further, the pest or weed control at 200 ppm in series [3] (setting [7]) is 0 to 49%. The pest or weed control at 200 ppm in series [4] lay in the range of 80 to 100%. The pest or weed control at 200 ppm in series [5] (setting [8]) lay within 0 to 49%. In addition, the pest or weed control at 200 ppm in series [6] (setting [8]) is 50 to 79%.
For `O=c1cnc(-c2cc(Br)cc(-c3ccsc3)c2)nn1CC(F)(F)F` [Compound 84, 3-(3-Bromo-5-thien-3-ylphenyl)-1-(2,2,2-trifluoroethyl)-1,2,4-triazin-6(1H)-one], the melting point was 180 to 182 °C. Besides, in series [1], the pest or weed control at 200 ppm lay within 0 to 49%. Moreover, in series [2] (setting [7]), the pest or weed control at 200 ppm is 0 to 49%. Besides, the pest or weed control at 200 ppm in series [3] (setting [7]) was in the range of 50 to 79%. The pest or weed control at 200 ppm in series [4] was in the range of 80 to 100%. Also, the pest or weed control at 200 ppm in series [5] (setting [8]) lay within 80 to 100%. Moreover, the pest or weed control at 200 ppm in series [6] (setting [8]) fell in the range of 0 to 49%.
For the compound `Cc1cc(C)cc(-c2ncc(=O)n(Cc3c(F)c(F)c(F)c(F)c3F)n2)c1` [Compound 85], the pest or weed control at 200 ppm in series [1] is 0 to 49%; in series [2] (setting [7]), 0 to 49%; in series [3] (setting [7]) it was 80 to 100%; in series [4], 80 to 100%; in series [5] (setting [8]) it was 80 to 100%; in series [6] (setting [8]), 80 to 100%.
For `Cc1cc(C)cc(-c2ncc(=O)n(CCOc3ccccc3)n2)c1` [Compound 86], the pest or weed control at 200 ppm lay within 0 to 49% in series [1]; 0 to 49% in series [2] (setting [7]); 80 to 100% in series [3] (setting [7]); 80 to 100% in series [4]; 80 to 100% in series [5] (setting [8]); 80 to 100% in series [6] (setting [8]).
Turning to `O=c1cnc(-c2cc(Cl)cc(Cl)c2)nn1CCOc1ccccc1` [Compound 87], the pest or weed control at 200 ppm in series [1], in series [2] (setting [7]), in series [3] (setting [7]), in series [4], in series [5] (setting [8]) and in series [6] (setting [8]) was 0 to 49% each time.
On to `O=c1cnc(-c2ccc(-c3ccc(Cl)s3)nc2)nn1CC(F)(F)F` [Compound 88], for which the pest or weed control at 200 ppm was 0 to 49% in series [1]; 0 to 49% in series [2] (setting [7]); 0 to 49% in series [3] (setting [7]); 0 to 49% in series [4]; 50 to 79% in series [5] (setting [8]); 0 to 49% in series [6] (setting [8]).
In the case of `O=c1cnc(-c2cccc(/C=C\c3ccccc3)c2)nn1CC(F)(F)F` [Compound 89], the pest or weed control at 200 ppm in series [1] was in the range of 0 to 49%; in series [2], 0 to 49%; in series [3], 50 to 79%; in series [4], 80 to 100%; in series [5] it was 80 to 100%; in series [6] it was 80 to 100%.
For the compound `O=c1cnc(-c2cccc(CC3=CCc4ccccc43)c2)nn1CC(F)(F)F` [Compound 90], the pest or weed control at 200 ppm in series [1] lay in the range of 0 to 49%; in series [2] (setting [7]) it was 0 to 49%; in series [3] (setting [7]), 0 to 49%; in series [4], 80 to 100%; in series [5] (setting [8]), 50 to 79%; in series [6] (setting [8]), 50 to 79%.
As to `O=c1cnc(-c2cccc(C#Cc3ccccc3)c2)nn1CC(F)(F)F` [Compound 92], the pest or weed control at 200 ppm in series [1] was 50 to 79%; in series [2] (setting [7]), 0 to 49%; in series [3] (setting [7]), 80 to 100%; in series [4], 80 to 100%; in series [5] (setting [8]) it was 50 to 79%; in series [6] (setting [8]) it was 80 to 100%.
Turning to `O=c1cnc(-c2ccc(F)c(Br)c2)nn1Cc1ccc(Cl)nc1` [Compound 97, (3-bromo-4-fluoro-phenyl)-1-(6-chloro-pyridin-3-ylmethyl)-1H-[1,2,4]triazin-6-one], the pest or weed control at 200 ppm in series [1] is 0 to 49%; in series [2] (setting [7]), 0 to 49%; in series [3] (setting [7]), 50 to 79%; in series [4], 80 to 100%; in series [5] (setting [8]) it was 80 to 100%; in series [6] (setting [8]), 80 to 100%.

The record behind these values is patent US7473669B2, “Substituted 4,5-dihydro-1,2,4-triazin-6-ones, 1,2,4-triazin-6-ones, and their use as fungicides” (priority 2005, dated 2009).
